Assay results from patent EP0148283A1, “Novel penicillanic acid derivatives” (F. HOFFMANN-LA ROCHE & CO. Aktiengesellschaft, priority 1983, dated 1985).
≈ marks a conversion by molar mass, not a printed value. Where two headings read alike, the source gives them in different places.

Tests used:
Test in all cases: In vitro antibacterial activity, MIC by broth dilution in 96-well trays
Type in all cases: cell-based
C. diversus = details: Citrobacter koseri; C. diversus strain CDC 1663-72
Experimental: (§1) The in vitro antibacterial activity of the following compounds:
(§2) The diluted agents are dispensed in 100 µl amounts into the wells of a 96-well tray and used immediately or frozen at -10 to -70°C until needed. Using an automated inoculator, 1.5 µl of a 10^-2 dilution of an overnight culture is added to each well of the tray. The tops of the trays are then sealed using transparent tape and incubated overnight at 37°C. The trays are examined with the aid of a viewer. The lowest concentration at which no growth is observed is considered to be the minimum inhibitory concentration (MIC). [formula] [formula] [formula] [formula] [formula] [formula] [formula] [formula] [formula] [formula] [formula]

C. freundii = details: Citrobacter freundii
Experimental: as §1, §2

E. aerogenes = details: Klebsiella aerogenes
Experimental: as §1, §2

E. cloacae = details: Enterobacter cloacae
Experimental: as §1, §2

E. coli = details: Escherichia coli
Experimental: as §1, §2

K. pneumoniae = details: Klebsiella pneumoniae
Experimental: as §1, §2

P. mirabilis = details: Proteus mirabilis
Experimental: as §1, §2

P. rettgeri = details: Providencia rettgeri, ATCC9250; P. rettgeri strain ATCC 9250
Experimental: as §1, §2

P. vulgaris = details: Proteus vulgaris
Experimental: as §1, §2

S. marcescens = system: S. marcescens
Experimental: as §1, §2

S. schottmuelleri = system: S. schottmuelleri
Experimental: as §1, §2

S. typhi P58A = details: Salmonella enterica
Experimental: as §1, §2

## CC1(C)S[C@@H]2[C@H](/N=C/N3CCCCCC3)C(=O)N2[C@H]1C(=O)O [Amdinocillin]
C. diversus
  MIC: 0.062 µg/mL (≈ 0.191 µM)
C. freundii; C. freundii strain CDC6
  MIC: 0.125 µg/mL (≈ 0.384 µM)
C. freundii; C. freundii strain 8ASM, read-out: MIC
  MIC: 0.062 µg/mL (≈ 0.191 µM)
E. aerogenes
  MIC: 128 µg/mL (≈ 393 µM)
E. aerogenes; E. aerogenes strain 83, read-out: MIC
  MIC: 8 µg/mL (≈ 24.6 µM)
E. aerogenes; E. aerogenes strain 503-478, read-out: MIC
  MIC: 4 µg/mL (≈ 12.3 µM)
E. cloacae; E. cloacae strain 24
  MIC: 0.125 µg/mL (≈ 0.384 µM)
E. cloacae; E. cloacae strain 214
  MIC: 0.125 µg/mL (≈ 0.384 µM)
E. cloacae; E. cloacae strain 5699
  MIC: 0.25 µg/mL (≈ 0.768 µM)
E. cloacae; E. cloacae strain 6951
  MIC: 16 µg/mL (≈ 49.2 µM)
E. cloacae; E. cloacae strain 9295
  MIC: 0.25 µg/mL (≈ 0.768 µM)
E. cloacae; E. cloacae strain 9570A
  MIC: 0.125 µg/mL (≈ 0.384 µM)
E. cloacae; E. cloacae strain P99
  MIC: 0.062 µg/mL (≈ 0.191 µM)
E. coli; E. coli strain 4
  MIC: 0.062 µg/mL (≈ 0.191 µM)
E. coli; E. coli strain 48
  MIC: 0.062 µg/mL (≈ 0.191 µM)
E. coli; E. coli strain 257
  MIC: 0.125 µg/mL (≈ 0.384 µM)
E. coli; E. coli strain 387-1
  MIC: 0.031 µg/mL (≈ 0.0953 µM)
E. coli; E. coli strain 503-455
  MIC: 2 µg/mL (≈ 6.15 µM)
E. coli; E. coli strain 5152
  MIC: 8 µg/mL (≈ 24.6 µM)
E. coli; E. coli strain R-563
  MIC: 0.125 µg/mL (≈ 0.384 µM)
K. pneumoniae; K. pneumoniae strain 35
  MIC: 0.125 µg/mL (≈ 0.384 µM)
K. pneumoniae; K. pneumoniae strain 503-964
  MIC: 0.125 µg/mL (≈ 0.384 µM)
K. pneumoniae; K. pneumoniae strain 503-994, read-out: MIC
  MIC: 0.062 µg/mL (≈ 0.191 µM)
K. pneumoniae; K. pneumoniae strain 4964, read-out: MIC
  MIC: 64 µg/mL (≈ 197 µM)
K. pneumoniae; K. pneumoniae strain 5096
  MIC: 128 µg/mL (≈ 393 µM)
K. pneumoniae; K. pneumoniae strain 8357, read-out: MIC
  MIC: 0.25 µg/mL (≈ 0.768 µM)
K. pneumoniae; K. pneumoniae strain A, read-out: MIC
  MIC: 0.031 µg/mL (≈ 0.0953 µM)
K. pneumoniae; K. pneumoniae strain HE7, read-out: MIC
  MIC: > 128 µg/mL
P. mirabilis
  MIC: 0.125 µg/mL (≈ 0.384 µM)
P. mirabilis; P. mirabilis strain 2, read-out: MIC
  MIC: 0.25 µg/mL (≈ 0.768 µM)
P. mirabilis; P. mirabilis strain 90, read-out: MIC
  MIC: 0.25 µg/mL (≈ 0.768 µM)
P. mirabilis; P. mirabilis strain 503-1136, read-out: MIC
  MIC: 2 µg/mL (≈ 6.15 µM)
P. mirabilis; P. mirabilis strain 620A, read-out: MIC
  MIC: 64 µg/mL (≈ 197 µM)
P. rettgeri
  MIC: 0.125 µg/mL (≈ 0.384 µM)
P. vulgaris; ATCC6380, P. vulgaris strain ATCC 6380
  MIC: 0.031 µg/mL (≈ 0.0953 µM)
P. vulgaris; P. vulgaris strain 100
  MIC: 0.5 µg/mL (≈ 1.54 µM)
P. vulgaris; P. vulgaris strain 101
  MIC: 64 µg/mL (≈ 197 µM)
S. marcescens; S. marcescens strain S3
  MIC: 0.125 µg/mL (≈ 0.384 µM)
S. marcescens; S. marcescens strain S147
  MIC: 0.125 µg/mL (≈ 0.384 µM)
S. marcescens; Serratia marcescens
  MIC: 0.125 µg/mL (≈ 0.384 µM)
S. marcescens; Serratia marcescens, S. marcescens strain 5805, read-out: MIC
  MIC: 1 µg/mL (≈ 3.07 µM)
S. marcescens; Serratia marcescens, S. marcescens strain S1, read-out: MIC
  MIC: 0.25 µg/mL (≈ 0.768 µM)
S. marcescens; Serratia marcescens, S. marcescens strain S2, read-out: MIC
  MIC: 0.25 µg/mL (≈ 0.768 µM)
S. marcescens; Serratia marcescens, S. marcescens strain S4, read-out: MIC
  MIC: 1 µg/mL (≈ 3.07 µM)
S. marcescens; Serratia marcescens, S. marcescens strain S5, read-out: MIC
  MIC: 1 µg/mL (≈ 3.07 µM)
S. marcescens; Serratia marcescens, S. marcescens strain S714, read-out: MIC
  MIC: 0.5 µg/mL (≈ 1.54 µM)
S. schottmuelleri
  MIC: 0.062 µg/mL (≈ 0.191 µM)
S. typhi P58A
  MIC: 0.062 µg/mL (≈ 0.191 µM)
